# Laboratory results from patent EP2608671B1, “COMPOUNDS FOR TREATMENT OF CANCER” (Gtx, Inc., priority 2010, dated 2012).
# Where two headings read alike, the source gives them in different places.
# Assays:
# PC-3 = assay: cells; settings: Homo sapiens
# Description: (§1) The only compounds which belong to the invention are the ones falling under the scope of formula (XI).
# Cells were stained with SRB solution.
# Cells. […] Cells between the third and fifth passages were used for experiments.
# Cell growth inhibition studies. […] Cells were stained with sulphorhodamine B (SRB) solution.
# WM-164 = assay: SRB cell growth inhibition (cytotoxicity) assay; format: cell-based, human; settings: Homo sapiens
# LNCaP = assay: cells; settings: Homo sapiens
# PPC-1 = assay: cells; settings: Homo sapiens
# A375 = assay: SRB cell growth inhibition (cytotoxicity) assay; format: cell-based, human
# B16-F1 = assay: SRB cell growth inhibition (cytotoxicity) assay; format: cell-based, mouse
# Description: as §1
# DU 145 = assay: cells; settings: Homo sapiens
# [1] = PC-3, 96 h, read-out: IC50 ± SEM (nM), PC-3
# [2] = WM164, SRB assay, 96 h, Table 2, read-out: IC50 ± SEM (nM), WM-164
# [3] = 96 h, read-out: IC50 ± SEM (nM), LNCaP
# [4] = PPC-1, 96 h, read-out: IC50 ± SEM (nM), PPC-1
# [5] = Homo sapiens, A-375, 96 h; read-out: IC50 ± SEM (nM), A375
# [6] = Mus musculus, B16-F1; read-out: IC50 ± SEM (nM), B16-F1
# [7] = DU-145, 96 h, read-out: IC50 ± SEM (nM), DU 145
# [8] = WM164, 96 h, read-out: IC50 ± SEM (nM), WM-164
# [9] = Homo sapiens, A-375, 96 h, read-out: IC50 ± SEM (nM), A375
# [10] = Mus musculus, B16-F1, read-out: IC50 ± SEM (nM), B16-F1
SMILES,IC50 (PC-3; [1]) [nM],IC50 (WM-164; [2]) [nM],IC50 (LNCaP; [3]) [nM],IC50 (PPC-1; [4]) [nM],IC50 (A375; [5]) [nM],IC50 (B16-F1; [6]) [nM],IC50 (DU 145; [7]) [nM],IC50 (A375; [9]) [nM],IC50 (B16-F1; [10]) [nM],further results
"COc1cc(C(=O)c2cc(-c3ccccc3)n[nH]2)cc(OC)c1OC [1k, (3-Phenyl-1H-pyrazol-5-yl)(3,4,5-trimethoxyphenyl)methanone]",,,,,,,,,,"IC50 (PC-3; PC-3, read-out: IC50 ±SEM (nM), PC-3): 101 nM; IC50 (WM-164; WM164, Table 6, read-out: IC50 ±SEM (nM), WM164): 220 nM; IC50 (LNCaP; read-out: IC50 ±SEM (nM), LNCaP): 101 nM; IC50 (PPC-1; PPC-1, read-out: IC50 ±SEM (nM), PPC-1): 84 nM; IC50 (A375; Homo sapiens, A-375; Table 6; read-out: IC50 ±SEM (nM), A375): 100 nM; IC50 (B16-F1; Mus musculus, B16-F1; Table 6; read-out: IC50 ±SEM (nM), B16-F1): 245 nM; IC50 (DU 145; DU-145, read-out: IC50 ±SEM (nM), DU 145): 140 nM"
"COc1cc(C(=C(C)C)c2csc(-c3ccccc3)n2)cc(OC)c1OC [2a, 4-(2-Methyl-1-(3,4,5-trimethoxyphenyl)prop-1-enyl)-2-phenylthiazole]",2470,3700 ± 1200,1390,2040,1900 ± 800,3800 ± 1300,2650,,,
"COc1cc(/C(=C\C#N)c2csc(-c3ccccc3)n2)cc(OC)c1OC [2c-cis, (E)-3-(2-phenylthiazol-4-yl)-3-(3,4,5-trimethoxyphenyl)acrylonitrile]",~10000,,1990,~10000,,,~10000,1200 ± 400,1200 ± 300,IC50 (WM-164; [8]): 1000 ± 200 nM
"COc1cc(/C(=C/C#N)c2csc(-c3ccccc3)n2)cc(OC)c1OC [2c-trans, (Z)-3-(2-phenylthiazol-4-yl)-3-(3,4,5-trimethoxyphenyl)acrylonitrile]",890,,580,900,,,2280,4600 ± 1500,5400 ± 2100,IC50 (WM-164; [8]): 4900 ± 1300 nM
"CO/N=C(/c1cc(OC)c(OC)c(OC)c1)c1csc(-c2ccccc2)n1 [2f-cis, (Z)-(2-Phenylthiazol-4-yl)(3,4,5-trimethoxyphenyl)methanone O-methyl oxime]",> 10000,3400 ± 1800,> 10000,> 10000,2900 ± 1200,3800 ± 1600,> 10000,,,
"CO/N=C(\c1cc(OC)c(OC)c(OC)c1)c1csc(-c2ccccc2)n1 [2f-trans, (E)-(2-Phenylthiazol-4-yl)(3,4,5-trimethoxyphenyl)methanone O-methyl oxime]",> 10000,> 10000,> 10000,> 10000,> 10000,> 10000,> 10000,,,
"COc1cc(-c2csc(-c3ccccc3)n2)cc(OC)c1OC [2i, 2-Phenyl-4-(3,4,5-trimethoxyphenyl)thiazole]",> 10000,> 10000,> 10000,> 10000,> 10000,> 10000,> 10000,,,
"O=C(c1cc(O)c(O)c(O)c1)c1c[nH]c(-c2ccc(O)c(O)c2)n1 [13ha, (2-(3,4-dihydroxyphenyl)-1H-imidazol-4-yl)(3,4,5-trihydroxyphenyl)methanone]",,,,,,,,,,"IC50 (WM-164; WM164 melanoma cells, 48 h, SRB, read-out: IC50 ± SEM (nM) WM164): > 10000 nM; IC50 (A375; Homo sapiens, A-375; A375 melanoma cells, 48 h, SRB; read-out: IC50 ± SEM (nM) A375): > 10000 nM; IC50 (B16-F1; Mus musculus; B16-F1 melanoma cells, 48 h, SRB; read-out: IC50 ± SEM (nM) B16-F1): > 10000 nM"
"COc1cc(C(=O)[C@@H]2CSC(c3ccc(O[Si](C)(C)C(C)(C)C)cc3)=N2)cc(OC)c1OC [58a, (R)-(2-(4-(tert-Butyldimethylsilyloxy)phenyl)-4,5-dihydrothiazol-4-yl)(3,4,5-trimethoxyphenyl)methanone]",183 ± 24,,549,246 ± 8,,,434 ± 30,700 ± 300,500 ± 200,
"COc1cc(C(=O)c2csc(-c3cc4ccccc4[nH]3)n2)cc(OC)c1OC [62a, (2-(1H-indol-2-yl)thiazol-4-yl)(3,4,5-trimethoxyphenyl)methanone]",24,,28,28,,,32,19 ± 9,43 ± 21,
"COc1cc(C(=O)c2csc(-c3ccc(CNC(=O)OC(C)(C)C)cc3)n2)cc(OC)c1OC [68a, tert-Butyl 4-(4-(3,4,5-trimethoxybenzoyl)thiazol-2-yl)benzylcarbamate]",3100,,2600,2700,7900 ± 500,2900 ± 400,4400,,,
"CC(C)C[C@H](NC(=O)[C@H](Cc1ccccc1)NC(=O)c1cnccn1)B(O)O [Bortezomib, reference compound]",,,,,,,,,,"IC50 (WM-164; WM164, read-out: IC50 ± SEM (nM) (n=3), WM-164, Table 14A): 8 ± 1 nM; IC50 (A375; Homo sapiens, A-375, read-out: IC50 ± SEM (nM) (n=3), A375; Table 14A): 8 ± 1 nM; IC50 (B16-F1; Mus musculus, B16-F1, read-out: IC50 ± SEM (nM) (n=3), B16-F1; Table 14A): 24 ± 2 nM"
